Measured values from US20240025906A1 (NEURON23, INC., priority 2022, published 2024).
Where two headings read alike, the source gives them in different places.

Columns and labels:
[1] = molecular target: T1, TYK2 JH2 (Homo sapiens, UniProt P29597); experiment: TYK2 JH2 binding assay (KINOMEscan KdELECT competitive binding); settings: TYK2 JH2 domain
T1 construct: purchased DiscoverX (KINOMEscan KdELECT service); host or cells: E. coli BL21-derived (T7 phage display) or HEK-293
Method in brief: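 Test compounds were titrated in 11 three-fold steps against JH2 fragment captured on ligand-loaded magnetic beads, with 1 h incubation at room temperature and DMSO at 0.9%. Eluted kinase was quantified by qPCR, and Kd was fitted from the dose series.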

[2] = test system: JAK1/TYK2 pSTAT5 (Tyr694/699) in THP-1 cell line; experiment: IFNa-stimulated JAK1/TYK2 pSTAT5 (Tyr694/699) inhibition cellular assay, AlphaLISA; format: cell-based; settings: Homo sapiens, THP-1 cells, AlphaLISA (Assay B)
Method in brief: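 pSTAT5 (Tyr694/699) in lysates quantified by AlphaLISA (615 nm) after 30 min IFNa stimulation (100 ng/mL stock) of THP-1 cells. The cells, 2e4 per well in HBSS, had first been exposed 1 h at 37° C. to eight 6-fold compound dilutions, 10000 down to 0.04 nM final. IC50 fitted by 4PL regression, bottom 0, Hill slope −1.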

[3] = KINOMEscan KdELECT (Assay A), read-out: Biochemical TYK2_DiscoverX_JH2_BND_Kd
[4] = IFNa-stimulated, read-out: Cellular_THP1_IFNa-pSTATS_TYK2
[5] = IFNa-stimulated pSTAT5 (Tyr694/699), read-out: Cellular_THP1_IFNa-pSTATS_TYK2
[6] = DiscoverX KINOMEscan KdELECT (Assay A), read-out: Biochemical TYK2_DiscoverX_JH2_BND_Kd
[7] = KINOMEscan KdELECT (Assay A), read-out: Biochemical TYK2_JH2_Kd
[8] = IFNa-stimulated, read-out: Cellular THP1_IFNa-pSTATS_IC50

T1 sequence (P29597 589-875 limits assumed): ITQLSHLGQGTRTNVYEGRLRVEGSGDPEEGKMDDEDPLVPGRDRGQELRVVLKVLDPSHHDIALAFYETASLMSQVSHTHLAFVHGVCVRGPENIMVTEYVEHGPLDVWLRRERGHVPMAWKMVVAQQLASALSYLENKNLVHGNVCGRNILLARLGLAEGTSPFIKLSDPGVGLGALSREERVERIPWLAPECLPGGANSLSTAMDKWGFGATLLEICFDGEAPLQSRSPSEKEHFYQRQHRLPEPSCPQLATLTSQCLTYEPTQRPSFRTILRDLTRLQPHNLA

| Kd [1, 3] | IC50 [2, 4] | Kd [1, 6] | Compound | further results |
| --- | --- | --- | --- | --- |
| ≤ 100 nM | ≤ 500 nM |  | CCNc1ncc(-c2cc3ccc(N4CCOCC4)cn3n2)c2cc(NC(=O)C3CC3)ncc12 [Example 876, N-(8-(ethylamino)-5-(6-morpholinopyrazolo[1,5-a]pyridin-2-yl)-2,7-naphthyridin-3-yl)cyclopropanecarboxamide] |  |
| ≤ 100 nM | ≤ 500 nM |  | CNc1ncc(-c2nc3cc(N4CCOC(C(C)(C)O)C4)ccc3o2)c2cc(NC(=O)C3CC3)ncc12 (centres unmarked) [Example 924, N-(5-(5-(2-(2-hydroxypropan-2-yl)morpholino)benzo[d]oxazol-2-yl)-8-(methylamino)-2,7-naphthyridin-3-yl)cyclopropanecarboxamide] |  |
| ≤ 100 nM |  |  | CNc1ncc(-c2nc3cc(N4C[C@@H](C)O[C@H](C)C4)ccc3o2)c2cc(NC(=O)[C@H]3C[C@H]3C)ncc12 [Example 1070, (1S,2R)-N-(5-(5-((2R,6R)-2,6-dimethylmorpholino)benzo[d]oxazol-2-yl)-8-(methylamino)-2,7-naphthyridin-3-yl)-2-methylcyclopropane-1-carboxamide] | IC50 [2, 5]: ≤ 500 nM |
|  | ≤ 500 nM | ≤ 100 nM | CNc1ncc(-c2nc3ccc(N4CCO[C@@H](C)C4)cn3n2)c2cc(NC(=O)C3CC3)ncc12 [Example 478, (S)-N-(8-(methylamino)-5-(6-(2-methylmorpholino)-[1,2,4]triazolo[1,5-a]pyridin-2-yl)-2,7-naphthyridin-3-yl)cyclopropanecarboxamide] |  |
|  | ≤ 500 nM | ≤ 100 nM | CNc1ncc(-c2nc3cc(OC)ccc3o2)c2cc(NC(=O)[C@H]3C[C@H]3CF)ncc12 (single isomer, unassigned) [Example 401] |  |
|  | ≤ 500 nM | ≤ 100 nM | CCNc1ncc(-c2nc3ccc(C)cn3n2)c2cc(NC(=O)C3CC3)ncc12 [Example 517, N-(8-(ethylamino)-5-(6-methyl-[1,2,4]triazolo[1,5-a]pyridin-2-yl)-2,7-naphthyridin-3-yl)cyclopropanecarboxamide] |  |
| ≤ 100 nM | ≤ 500 nM |  | CNc1ncc(C#Cc2ccc(OC)cc2)c2cc(NC(=O)[C@H]3C[C@H]3C)ncc12 [Example 753, (1S,2R)—N-(5-((4-methoxyphenyl)ethynyl)-8-(methylamino)-2,7-naphthyridin-3-yl)-2-methylcyclopropane-1-carboxamide] |  |
|  | ≤ 500 nM | ≤ 100 nM | [2H]C([2H])([2H])Nc1ncc(-c2nc3ccc(N4CCO[C@@H](C)C4)cn3n2)c2cc(NC(=O)C3(F)CC3)ncc12 [Example 576, (S)-1-fluoro-N-(8-((methyl-d3)amino)-5-(6-(2-methylmorpholino)-[1,2,4]triazolo[1,5-a]pyridin-2-yl)-2,7-naphthyridin-3-yl)cyclopropane-1-carboxamide] |  |
| ≤ 100 nM |  |  | CNc1ncc(-c2nc3ccc(N4CCO[C@@H]([C@H](C)O)C4)cn3n2)c2cc(NC(=O)C3CC3)ncc12 (single isomer, unassigned) [Example 1044] | IC50 [2, 5]: ≤ 500 nM |
| ≤ 100 nM | ≤ 500 nM |  | CNc1ncc(C#Cc2cn3c(n2)CCCC3)c2cc(NC(=O)C3CC3)ncc12 [Example 899, N-(8-(methylamino)-5-((5,6,7,8-tetrahydroimidazo[1,2-a]pyridin-2-yl)ethynyl)-2,7-naphthyridin-3-yl)cyclopropanecarboxamide] |  |
|  |  |  | CNc1ncc(-c2ncccc2OC)c2cc(NC(=O)C3CC3)ncc12 [Example 5, N-(5-(3-methoxypyridin-2-yl)-8-(methylamino)-2,7-naphthyridin-3-yl)cyclopropanecarboxamide] | Kd [1, 7]: 100 to 1000 nM; IC50 [2, 8]: > 500 nM |
| ≤ 100 nM | ≤ 500 nM |  | CNc1ncc(-c2nc3cc(C4(C)CCCO4)ccc3o2)c2cc(NC(=O)C3CC3)ncc12 (single isomer, unassigned) [Example 949] |  |
|  | ≤ 500 nM | ≤ 100 nM | [2H]C([2H])([2H])Nc1ncc(-c2nc3ccc(OC)cn3n2)c2cc(NC(=O)C3CC3)ncc12 [Example 511, N-(5-(6-methoxy-[1,2,4]triazolo[1,5-a]pyridin-2-yl)-8-((methyl-d3)amino)-2,7-naphthyridin-3-yl)cyclopropanecarboxamide] |  |
|  |  |  | CNc1ncc(-c2ncccc2OC)c2cc(NC(C)=O)ncc12 [Example 89, N-(5-(3-methoxypyridin-2-yl)-8-(methylamino)-2,7-naphthyridin-3-yl)acetamide] | Kd [1, 7]: 100 to 1000 nM; IC50 [2, 8]: > 500 nM |
| ≤ 100 nM | ≤ 500 nM |  | CNc1ncc(C#Cc2ccc3c(c2)CC[C@@H](COC)O3)c2cc(NC(=O)C3CC3)ncc12 (single isomer, unassigned) [Example 989] |  |
|  | ≤ 500 nM | ≤ 100 nM | CNc1ncc(-c2nc3cc(OC[C@H](C)O)ccc3o2)c2cc(NC(=O)C3CC3)ncc12 [Example 240, (S)—N-(5-(5-(2-hydroxypropoxy)benzo[d]oxazol-2-yl)-8-(methylamino)-2,7-naphthyridin-3-yl)cyclopropanecarboxamide] |  |
|  | ≤ 500 nM | ≤ 100 nM | CNc1ncc(-c2nc3cc(C4CCOCC4C)ccc3o2)c2cc(NC(=O)C3CC3)ncc12 (centres unmarked) [Example 249, N-(8-(methylamino)-5-(5-(3-methyltetrahydro-2H-pyran-4-yl)benzo[d]oxazol-2-yl)-2,7-naphthyridin-3-yl)cyclopropanecarboxamide] |  |
|  | ≤ 500 nM | ≤ 100 nM | CNc1ncc(-c2nc3cc(N4CCN(c5ccncc5)CC4)ccc3o2)c2cc(NC(=O)C3CC3)ncc12 [Example 307, N-(8-(methylamino)-5-(5-(4-(pyridin-4-yl)piperazin-1-yl)benzo[d]oxazol-2-yl)-2,7-naphthyridin-3-yl)cyclopropanecarboxamide] |  |
| ≤ 100 nM | ≤ 500 nM |  | CNc1ccc(C#Cc2cnc(NC)c3cnc(NC(=O)C4CC4)cc23)cc1 [Example 651, N-(8-(methylamino)-5-((4-(methylamino)phenyl)ethynyl)-2,7-naphthyridin-3-yl)cyclopropanecarboxamide] |  |
|  | ≤ 500 nM | ≤ 100 nM | CNc1ncc(-c2nc3cc(N4CCOCC4)ccc3o2)c2cc(NC(=O)C3(F)CC3)ncc12 [Example 425, 1-fluoro-N-(8-(methylamino)-5-(5-morpholinobenzo[d]oxazol-2-yl)-2,7-naphthyridin-3-yl)cyclopropane-1-carboxamide] |  |
|  | ≤ 500 nM | ≤ 100 nM | [2H]C([2H])([2H])Nc1ncc(-c2nc3cc(OC)ccc3o2)c2cc(NC(=O)C3CC3)ncc12 [Example 362, N-(5-(5-methoxybenzo[d]oxazol-2-yl)-8-((methyl-d3)amino)-2,7-naphthyridin-3-yl)cyclopropanecarboxamide] |  |
| ≤ 100 nM | ≤ 500 nM |  | [2H]C([2H])([2H])n1c(C#Cc2cnc(NC)c3cnc(NC(=O)C4CC4)cc23)cnc1C [Example 902, N-(5-((2-methyl-1-(methyl-d3)-1H-imidazol-5-yl)ethynyl)-8-(methylamino)-2,7-naphthyridin-3-yl)cyclopropanecarboxamide] |  |
|  |  |  | CNc1ncc(-c2c(C)cnn2C2CCCCO2)c2cc(NC(=O)C3CC3)ncc12 (centres unmarked) [Example 39, N-(5-(4-methyl-1-(tetrahydro-2H-pyran-2-yl)-1H-pyrazol-5-yl)-8-(methylamino)-2,7-naphthyridin-3-yl)cyclopropanecarboxamide] | Kd [1, 7]: 1000 to 10000 nM; IC50 [2, 8]: > 500 nM |
| ≤ 100 nM | ≤ 500 nM |  | CNc1ncc(C#Cc2ccc3c(c2)CCC(COC)O3)c2cc(NC(=O)C3CC3)ncc12 (centres unmarked) [Example 987, N-[5-[2-[2-(methoxymethyl)chroman-6-yl]ethynyl]-8-(methylamino)-2,7-naphthyridin-3-yl]cyclopropanecarobxamide] |  |
|  | ≤ 500 nM | ≤ 100 nM | CNc1ncc(-c2nc3cccc(N4CC(COC)C4)c3o2)c2cc(NC(=O)C3CC3)ncc12 [Example 264, N-(5-(7-(3-(methoxymethyl)azetidin-1-yl)benzo[d]oxazol-2-yl)-8-(methylamino)-2,7-naphthyridin-3-yl)cyclopropanecarboxamide] |  |
| ≤ 100 nM | ≤ 500 nM |  | CNc1ncc(C#Cc2ccc(OCC(C)(C)C#N)cc2)c2cc(NC(=O)C3CC3)ncc12 [Example 710, N-(5-((4-(2-cyano-2-methylpropoxy)phenyl)ethynyl)-8-(methylamino)-2,7-naphthyridin-3-yl)cyclopropanecarboxamide] |  |
|  | ≤ 500 nM | ≤ 100 nM | CNc1ncc(-c2nc3cc(N4CCOCC4)ccc3o2)c2cc(Nc3cc(C)n(C)n3)ncc12 [Example 426, N6-(1,5-dimethyl-1H-pyrazol-3-yl)-N^1-methyl-4-(5-morpholinobenzo[d]oxazol-2-yl)-2,7-naphthyridine-1,6-diamine] |  |
| ≤ 100 nM | > 500 nM |  | CNc1ncc(C2=CCCC(c3nc[nH]n3)C2)c2cc(NC(=O)C3CC3)ncc12 (centres unmarked) [Example 832, N-(5-(5-(1H-1,2,4-triazol-3-yl)cyclohex-1-en-1-yl)-8-(methylamino)-2,7-naphthyridin-3-yl)cyclopropanecarboxamide] |  |
